Source: patent publication US8865623B2, “Herbicidally active cyclic diones and derivatives thereof, processes for their preparation, compositions, and method of controlling weeds” (Syngenta Limited, priority 2009, dated 2014)

What was measured:
Format in all cases: in vivo
[1] = test system: Alopecurus myosuroides (ALOMY); experiment: Pre-emergence herbicidal activity, glasshouse pot test; conditions: Alopecurus myosuroides, 312 h; Rate 250 g/ha; pre-emergence spray; evaluated after 13 days; read-out: Pre-emergence activity ALOMY (100=total damage to plant; 0=no damage to plant)
How it was run: (§1)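 Pot-grown plants in standard soil received a spray one day post-sowing (pre-emergence) or after eight days' growth (post-emergence). Scoring took place 13 days later on a 0–100 scale, 100 meaning total damage.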

Avena fatua (AVEFA) [2] = experiment: as above; conditions: Avena fatua, 312 h; Rate 250 g/ha; pre-emergence spray; evaluated after 13 days; read-out: Pre-emergence activity AVEFA (100=total damage to plant; 0=no damage to plant)
How it was run: as §1

[3] = test system: Echinochloa crus-galli (ECHCG); experiment: as above; conditions: Echinochloa crus-galli, 312 h; Rate 250 g/ha; pre-emergence spray; evaluated after 13 days; read-out: Pre-emergence activity ECHCG (100=total damage to plant; 0=no damage to plant)
How it was run: as §1

Lolium perenne (LOLPE) [4] = experiment: as above; conditions: Lolium perenne, 312 h; Rate 250 g/ha; pre-emergence spray; evaluated after 13 days; read-out: Pre-emergence activity LOLPE (100=total damage to plant; 0=no damage to plant)
How it was run: as §1

[5] = test system: Alopecurus myosuroides (ALOMY); experiment: Post-emergence herbicidal activity, glasshouse pot test; conditions: Alopecurus myosuroides, 312 h, rate 250 g/ha, evaluated after 13 days, glasshouse, read-out: Post-emergence activity ALOMY (100=total damage to plant; 0=no damage to plant)
How it was run: as §1

Avena fatua (AVEFA) [6] = experiment: as above; conditions: Avena fatua, 312 h, rate 250 g/ha, evaluated after 13 days, glasshouse, read-out: Post-emergence activity AVEFA (100=total damage to plant; 0=no damage to plant)
How it was run: as §1

[7] = test system: Echinochloa crus-galli (ECHCG); experiment: as above; conditions: Echinochloa crus-galli, 312 h, rate 250 g/ha, evaluated after 13 days, glasshouse, read-out: Post-emergence activity ECHCG (100=total damage to plant; 0=no damage to plant)
How it was run: as §1

Lolium perenne (LOLPE) [8] = experiment: as above; conditions: Lolium perenne, 312 h, rate 250 g/ha, evaluated after 13 days, glasshouse, read-out: Post-emergence activity LOLPE (100=total damage to plant; 0=no damage to plant)
How it was run: as §1

`CCc1ccc(Oc2ncc(Br)cn2)cc1C1=C(O)C(C)(C)OC(C)(C)C1=O` [Example A-109] gave a pest or weed control at 250 g/ha [1] of 80%, a pest or weed control at 250 g/ha (Avena fatua (AVEFA) [2]) of 70% and a pest or weed control at 250 g/ha [3] of 100%. It also gave a pest or weed control at 250 g/ha (Lolium perenne (LOLPE) [4]) of 80%, a pest or weed control at 250 g/ha [5] of 90% and a pest or weed control at 250 g/ha (Avena fatua (AVEFA) [6]) of 90%. It also gave a pest or weed control at 250 g/ha [7] of 100% and a pest or weed control at 250 g/ha (Lolium perenne (LOLPE) [8]) of 90%.
`CCc1ccc(Oc2ccc(Cl)cc2Cl)cc1C1=C(O)CCC(C)(C)C1=O` [Example A-111] was tested, and the pest or weed control at 250 g/ha [1] was 10%, the pest or weed control at 250 g/ha (Avena fatua (AVEFA) [2]) was 30% and the pest or weed control at 250 g/ha [3] was 40%. For the same compound, the pest or weed control at 250 g/ha (Lolium perenne (LOLPE) [4]) was 40%, the pest or weed control at 250 g/ha [5] was 10% and the pest or weed control at 250 g/ha (Avena fatua (AVEFA) [6]) was 0%. It also gave a pest or weed control at 250 g/ha [7] of 40% and a pest or weed control at 250 g/ha (Lolium perenne (LOLPE) [8]) of 50%.
In the case of `CCc1ccc(Oc2ccc(Cl)cc2F)cc1C1=C(O)CCC(C)(C)C1=O` [Example A-112], the pest or weed control at 250 g/ha [1] is reported as 40%, the pest or weed control at 250 g/ha (Avena fatua (AVEFA) [2]) is reported as 30% and the pest or weed control at 250 g/ha [3] is reported as 60%. For the same compound, the pest or weed control at 250 g/ha (Lolium perenne (LOLPE) [4]) was 90%, the pest or weed control at 250 g/ha [5] was 20% and the pest or weed control at 250 g/ha (Avena fatua (AVEFA) [6]) was 20%. For the same compound, the pest or weed control at 250 g/ha [7] was 70% and the pest or weed control at 250 g/ha (Lolium perenne (LOLPE) [8]) was 60%.
In the case of `CCc1ccc(Oc2ccc(Br)cc2)cc1C1=C(O)CCC(C)(C)C1=O` [Example A-113], the pest or weed control at 250 g/ha [1] is reported as 30%, the pest or weed control at 250 g/ha (Avena fatua (AVEFA) [2]) is reported as 30% and the pest or weed control at 250 g/ha [3] is reported as 60%. The pest or weed control at 250 g/ha (Lolium perenne (LOLPE) [4]) was 100%, the pest or weed control at 250 g/ha [5] was 10% and the pest or weed control at 250 g/ha (Avena fatua (AVEFA) [6]) was 0%. It also gave a pest or weed control at 250 g/ha [7] of 90% and a pest or weed control at 250 g/ha (Lolium perenne (LOLPE) [8]) of 40%.
Compound `CCc1ccc(Oc2ccc(Br)cc2F)cc1C1=C(O)CCC(C)(C)C1=O` [Example A-114] has a pest or weed control at 250 g/ha [1] of 20%, a pest or weed control at 250 g/ha (Avena fatua (AVEFA) [2]) of 50% and a pest or weed control at 250 g/ha [3] of 60%. The pest or weed control at 250 g/ha (Lolium perenne (LOLPE) [4]) was 90%, the pest or weed control at 250 g/ha [5] was 10% and the pest or weed control at 250 g/ha (Avena fatua (AVEFA) [6]) was 10%. It also gave a pest or weed control at 250 g/ha [7] of 80% and a pest or weed control at 250 g/ha (Lolium perenne (LOLPE) [8]) of 50%.
For `CCc1ccc(Oc2nc(C(F)(F)F)c(C#N)s2)cc1C1=C(O)C(C)(C)OC(C)(C)C1=O` [Example A-115], the pest or weed control at 250 g/ha [1] was 0%, the pest or weed control at 250 g/ha (Avena fatua (AVEFA) [2]) was 0% and the pest or weed control at 250 g/ha [3] was 0%. It also gave a pest or weed control at 250 g/ha (Lolium perenne (LOLPE) [4]) of 0%, a pest or weed control at 250 g/ha [5] of 0% and a pest or weed control at 250 g/ha (Avena fatua (AVEFA) [6]) of 10%. It also gave a pest or weed control at 250 g/ha [7] of 60% and a pest or weed control at 250 g/ha (Lolium perenne (LOLPE) [8]) of 0%.
With `CCc1ccc(Oc2ccc(C#N)c(F)c2)cc1C1=C(O)C(C)(C)OC(C)(C)C1=O` [Example A-116] the pest or weed control at 250 g/ha [1] was 0%, the pest or weed control at 250 g/ha (Avena fatua (AVEFA) [2]) was 0% and the pest or weed control at 250 g/ha [3] was 20%. For the same compound, the pest or weed control at 250 g/ha (Lolium perenne (LOLPE) [4]) was 20%, the pest or weed control at 250 g/ha [5] was 80% and the pest or weed control at 250 g/ha (Avena fatua (AVEFA) [6]) was 30%. For the same compound, the pest or weed control at 250 g/ha [7] was 100% and the pest or weed control at 250 g/ha (Lolium perenne (LOLPE) [8]) was 40%.
`CCc1ccc(Oc2cc(F)ccc2C#N)cc1C1=C(O)C(C)(C)OC(C)(C)C1=O` [Example A-117] was tested, and the pest or weed control at 250 g/ha [1] was 0%, the pest or weed control at 250 g/ha (Avena fatua (AVEFA) [2]) was 0% and the pest or weed control at 250 g/ha [3] was 20%. The pest or weed control at 250 g/ha (Lolium perenne (LOLPE) [4]) was 20%, the pest or weed control at 250 g/ha [5] was 80% and the pest or weed control at 250 g/ha (Avena fatua (AVEFA) [6]) was 30%. For the same compound, the pest or weed control at 250 g/ha [7] was 100% and the pest or weed control at 250 g/ha (Lolium perenne (LOLPE) [8]) was 40%.
`CCc1ccc(Oc2nc3ccccc3o2)cc1C1=C(O)C(C)(C)OC(C)(C)C1=O` [Example A-118] showed a pest or weed control at 250 g/ha [1] of 100%, a pest or weed control at 250 g/ha (Avena fatua (AVEFA) [2]) of 80% and a pest or weed control at 250 g/ha [3] of 100%. The pest or weed control at 250 g/ha (Lolium perenne (LOLPE) [4]) was 100%, the pest or weed control at 250 g/ha [5] was 90% and the pest or weed control at 250 g/ha (Avena fatua (AVEFA) [6]) was 80%. It also gave a pest or weed control at 250 g/ha [7] of 100% and a pest or weed control at 250 g/ha (Lolium perenne (LOLPE) [8]) of 100%.
In the case of `CCc1ccc(Oc2cc(C)c(Cl)nn2)cc1C1=C(O)C(C)(C)OC(C)(C)C1=O` [Example A-121], the pest or weed control at 250 g/ha [1] is reported as 10%, the pest or weed control at 250 g/ha (Avena fatua (AVEFA) [2]) is reported as 0% and the pest or weed control at 250 g/ha [3] is reported as 10%. For the same compound, the pest or weed control at 250 g/ha (Lolium perenne (LOLPE) [4]) was 0%, the pest or weed control at 250 g/ha [5] was 10% and the pest or weed control at 250 g/ha (Avena fatua (AVEFA) [6]) was 0%. For the same compound, the pest or weed control at 250 g/ha [7] was 50% and the pest or weed control at 250 g/ha (Lolium perenne (LOLPE) [8]) was 20%.
